Here are results for ten compounds from patent publication US20230257372A1 (CHONG KUN DANG PHARMACEUTICAL CORP., priority 2020, published 2023).

One assay addresses T1, human recombinant HDAC6 (Homo sapiens, UniProt Q9UBN7).
T1 construct: purchased Calbiochem Inc. 382180
T1 sequence (Q9UBN7 1-1215): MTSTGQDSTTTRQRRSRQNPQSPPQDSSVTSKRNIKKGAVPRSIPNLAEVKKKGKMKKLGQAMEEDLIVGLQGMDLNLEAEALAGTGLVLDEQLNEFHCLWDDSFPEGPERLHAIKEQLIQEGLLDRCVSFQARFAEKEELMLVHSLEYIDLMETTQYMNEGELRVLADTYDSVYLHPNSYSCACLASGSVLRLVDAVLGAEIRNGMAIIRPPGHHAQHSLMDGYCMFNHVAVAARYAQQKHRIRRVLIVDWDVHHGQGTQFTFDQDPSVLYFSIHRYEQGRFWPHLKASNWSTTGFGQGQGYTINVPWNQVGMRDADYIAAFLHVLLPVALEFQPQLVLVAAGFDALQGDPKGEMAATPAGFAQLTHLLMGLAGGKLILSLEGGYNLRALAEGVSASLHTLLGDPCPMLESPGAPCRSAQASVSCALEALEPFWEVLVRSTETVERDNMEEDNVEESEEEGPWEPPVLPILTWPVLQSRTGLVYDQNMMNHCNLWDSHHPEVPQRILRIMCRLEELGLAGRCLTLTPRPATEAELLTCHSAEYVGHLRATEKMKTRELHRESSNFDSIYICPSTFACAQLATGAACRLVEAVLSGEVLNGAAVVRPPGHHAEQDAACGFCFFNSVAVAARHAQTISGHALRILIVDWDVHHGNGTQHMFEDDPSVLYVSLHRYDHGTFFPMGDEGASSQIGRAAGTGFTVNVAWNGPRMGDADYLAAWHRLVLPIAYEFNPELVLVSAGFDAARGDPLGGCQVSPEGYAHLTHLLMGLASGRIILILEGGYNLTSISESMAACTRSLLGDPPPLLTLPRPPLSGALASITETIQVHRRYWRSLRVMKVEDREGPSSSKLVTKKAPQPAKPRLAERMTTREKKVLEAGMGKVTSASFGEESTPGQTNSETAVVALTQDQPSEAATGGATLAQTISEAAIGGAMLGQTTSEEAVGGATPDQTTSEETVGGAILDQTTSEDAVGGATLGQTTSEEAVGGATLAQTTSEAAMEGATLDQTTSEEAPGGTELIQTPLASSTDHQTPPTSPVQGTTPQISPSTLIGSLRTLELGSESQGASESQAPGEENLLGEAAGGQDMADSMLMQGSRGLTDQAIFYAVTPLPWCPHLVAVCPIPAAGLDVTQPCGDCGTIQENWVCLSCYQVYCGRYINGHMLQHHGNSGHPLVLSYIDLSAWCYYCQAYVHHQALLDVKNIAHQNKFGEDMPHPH
Briefly: HDAC6 enzyme activity inhibition (HDAC Fluorimetric Drug Discovery Kit). The format is biochemical. Conditions: for HDAC6 selectivity (fold): HDAC1 IC50 / HDAC6 IC50; for IC50: human recombinant HDAC6, IC50 calculated with GraphPad Prism. The method, boiled down: (§1)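 Enzyme at 0.3 µg per well was reacted with 10 μM fluorogenic substrate in presence of 5-fold diluted compound, 30° C for 60 min.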

Another assay addresses T2, human recombinant HDAC1 (Homo sapiens, UniProt Q13547).
T2 construct: purchased Enzo Life Science, Inc. BML-SE456
The experiment in a line: HDAC1 enzyme activity inhibition (HDAC Fluorimetric Drug Discovery Kit). Type of assay: biochemical. Conditions: human recombinant HDAC1; IC50 calculated with GraphPad Prism; read-out: HDAC1. In short, it runs like this:
as §1

T2 sequence (Q13547 whole entry): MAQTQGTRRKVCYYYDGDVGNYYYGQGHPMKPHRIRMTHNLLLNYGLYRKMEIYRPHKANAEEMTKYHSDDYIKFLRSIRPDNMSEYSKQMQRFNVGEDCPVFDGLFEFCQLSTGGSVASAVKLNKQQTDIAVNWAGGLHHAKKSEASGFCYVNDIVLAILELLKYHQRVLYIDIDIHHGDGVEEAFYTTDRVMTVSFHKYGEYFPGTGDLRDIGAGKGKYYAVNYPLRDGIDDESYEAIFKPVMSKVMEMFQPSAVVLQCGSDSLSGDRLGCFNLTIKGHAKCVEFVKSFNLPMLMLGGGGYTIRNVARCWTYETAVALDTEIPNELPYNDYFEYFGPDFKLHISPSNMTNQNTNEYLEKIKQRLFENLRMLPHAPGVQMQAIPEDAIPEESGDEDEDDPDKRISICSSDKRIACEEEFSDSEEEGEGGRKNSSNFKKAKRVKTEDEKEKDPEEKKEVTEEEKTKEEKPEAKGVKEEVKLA

On to `CN1CCN(Cc2cccc(-c3cn(Cc4ccc(-c5nnc(C(F)F)o5)cc4F)nn3)c2)CC1` [Compound 4406, 2-(difluoromethyl)-5-(3-fluoro-4-((4-(3-((4-methylpiperazin-1-yl)methyl)phenyl)-1H-1,2,3-triazol-1-yl)methyl)phenyl)-1,3,4-oxadiazole], for which, on human recombinant HDAC6, the “HDAC6 selectivity (fold)” value was found to be 892 fold and the IC50 was 56 nM. Moreover, on human recombinant HDAC1, the IC50 is more than 50000 nM.

Consider `CCN1CCN(Cc2cccc(-c3cn(Cc4ccc(-c5nnc(C(F)F)o5)cc4F)nn3)c2)CC1` [Compound 4407, 2-(difluoromethyl)-5-(4-((4-(3-((4-ethylpiperazin-1-yl)methyl)phenyl)-1H-1,2,3-triazol-1-yl)methyl)-3-fluorophenyl)-1,3,4-oxadiazole], for which, at human recombinant HDAC6, the “HDAC6 selectivity (fold)” value was 1259 fold and the IC50 is 39.7 nM. On human recombinant HDAC1, the IC50 was more than 50000 nM.

For the compound `CC(C)N1CCN(Cc2cccc(-c3cn(Cc4ccc(-c5nnc(C(F)F)o5)cc4F)nn3)c2)CC1` [Compound 4408], at human recombinant HDAC6, the “HDAC6 selectivity (fold)” value came to 970 fold and the IC50 is 51.5 nM. Also, at human recombinant HDAC1, the IC50 is more than 50000 nM.

On to `FC(F)c1nnc(-c2ccc(Cn3cc(-c4cccc(CN5CCC5)c4)nn3)cc2)o1` [Compound 4409, 2-(4-((4-(3-(azetidin-1-ylmethyl)phenyl)-1H-1,2,3-triazol-1-yl)methyl)phenyl)-5-(difluoromethyl)-1,3,4-oxadiazole], for which the “HDAC6 selectivity (fold)” value on human recombinant HDAC6 was 96 fold. Besides, the IC50 at human recombinant HDAC6 is 519 nM; at human recombinant HDAC1 it was more than 50000 nM.

On to `FC1CN(Cc2cccc(-c3cn(Cc4ccc(-c5nnc(C(F)F)o5)cc4)nn3)c2)C1` [Compound 4410, 2-(difluoromethyl)-5-(4-((4-(3-((3-fluoroazetidin-1-yl)methyl)phenyl)-1H-1,2,3-triazol-1-yl)methyl)phenyl)-1,3,4-oxadiazole], for which the “HDAC6 selectivity (fold)” value on human recombinant HDAC6 worked out at 781 fold. Further, the IC50 at human recombinant HDAC6 is 64 nM; at human recombinant HDAC1 it was more than 50000 nM.

Take `FC(F)c1nnc(-c2ccc(Cn3cc(-c4cccc(CN5CCOCC5)c4)nn3)cc2)o1` [Compound 4411, 4-(3-(1-(4-(5-(difluoromethyl)-1,3,4-oxadiazol-2-yl)benzyl)-1H-1,2,3-triazol-4-yl)benzyl)morpholine]: at human recombinant HDAC6, the “HDAC6 selectivity (fold)” value was determined as 662 fold and the IC50 was 75.5 nM. Moreover, the IC50 on human recombinant HDAC1 is more than 50000 nM.

As for `O=S1(=O)CCN(Cc2cccc(-c3cn(Cc4ccc(-c5nnc(C(F)F)o5)cc4)nn3)c2)CC1` [Compound 4412, 4-(3-(1-(4-(5-(difluoromethyl)-1,3,4-oxadiazol-2-yl)benzyl)-1H-1,2,3-triazol-4-yl)benzyl)thiomorpholine 1,1-dioxide], at human recombinant HDAC6, the “HDAC6 selectivity (fold)” value was found to be 432 fold. Besides, the figures for the IC50 at human recombinant HDAC6 and on human recombinant HDAC1 were 116 nM and more than 50000 nM, respectively.

For the compound `FC(F)c1nnc(-c2ccc(Cn3cc(-c4cccc(CN5CCC(F)(F)CC5)c4)nn3)cc2)o1` [Compound 4413, 2-(difluoromethyl)-5-(4-((4-(3-((4,4-difluoropiperidin-1-yl)methyl)phenyl)-1H-1,2,3-triazol-1-yl)methyl)phenyl)-1,3,4-oxadiazole], on human recombinant HDAC6, the “HDAC6 selectivity (fold)” value amounted to 348 fold and the IC50 was 144 nM. The IC50 at human recombinant HDAC1 was more than 50000 nM.

As to `CN1CCN(Cc2cccc(-c3cn(Cc4ccc(-c5nnc(C(F)F)o5)cc4)nn3)c2)CC1` [Compound 4414], on human recombinant HDAC6, the “HDAC6 selectivity (fold)” value was determined as 627 fold and the IC50 is 79.7 nM. Further, at human recombinant HDAC1, the IC50 is more than 50000 nM.

`CCN1CCN(Cc2cccc(-c3cn(Cc4ccc(-c5nnc(C(F)F)o5)cc4)nn3)c2)CC1` [Compound 4415, 2-(difluoromethyl)-5-(4-((4-(3-((4-ethylpiperazin-1-yl)methyl)phenyl)-1H-1,2,3-triazol-1-yl)methyl)phenyl)-1,3,4-oxadiazole]: the “HDAC6 selectivity (fold)” value on human recombinant HDAC6 worked out at 545 fold. Also, the IC50 at human recombinant HDAC6 was 91.7 nM; at human recombinant HDAC1, more than 50000 nM.
